Results reported in patent US11285156B2, “Substituted piperazines as KRAS G12C inhibitors” (Amgen Inc., priority 2018, dated 2022).
Where two headings read alike, the source gives them in different places.

How the values were obtained:
[1] = target: GDP-bound KRAS protein (aa 1-169), containing both G12C and C118A amino acid substitutions (Homo sapiens (Human), UniProt P01116, C118A/G12C); assay: Coupled nucleotide exchange assay (SOS-mediated nucleotide exchange, AlphaScreen); type: biochemical; conditions: read-out: Coupled exchange IC50 (5 min; μM); 5 min compound pre-incubation
Chain of GDP-bound KRAS protein (aa 1-169), containing both G12C and C118A amino acid substitutions (P01116 other isoform, or with tags, fused parts or gaps G12C/C118A): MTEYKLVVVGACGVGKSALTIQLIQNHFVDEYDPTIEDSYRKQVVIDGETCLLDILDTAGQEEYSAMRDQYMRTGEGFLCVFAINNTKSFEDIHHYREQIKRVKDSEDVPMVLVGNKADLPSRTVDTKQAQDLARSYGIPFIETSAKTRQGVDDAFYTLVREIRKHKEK

[2] = test system: Phosphorylation of ERK1/2 in MIA PaCa-2 cells; assay: Phospho-ERK1/2 MSD assay in MIA PaCa-2 cells; type: cell-based; conditions: read-out: p-ERK IC50 (2 h, MiaPaCa-2; μM), 2 h compound treatment, MIA PaCa-2 cells, EGF stimulated
How it was run: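 Phospho-ERK1/2 measured by MSD electrochemiluminescence kit in RIPA lysates of MIA PaCa-2 cells. Cells were treated with compound titrations for 2 or 4 h at 37 °C, 5% CO2, followed by a 10 min pulse of 10 ng/mL EGF.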

[3] = test system: Phosphorylation of ERK1/2 in A549 cells; assay: Phospho-ERK1/2 MSD assay in A549 cells; type: cell-based; conditions: read-out: p-ERK IC50 (2 h, A549; μM), 2 h compound treatment, A549 cells, EGF stimulated
How it was run: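 Phospho-ERK1/2 was quantified by MSD immunoassay in RIPA lysates of MIA PaCa-2 or A549 cells. Before lysis, cells received 10 ng/mL EGF for 10 min after 2 or 4 h exposure at 37° C. to a compound concentration series.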

Row | SMILES | IC50 [1] | IC50 [2] | IC50 [3] | IC50 ([3]; Homo sapiens, A549, 2 h) | IC50 ([2]; Homo sapiens, MIA PaCa-2, 2 h)
1 | C=CC(=O)N1C[C@H](C)N(c2nc(=O)n(-c3c(C)ccnc3C(C)C)c3nc(C4CC4(C)C)c(Cl)cc23)C[C@H]1C (stereo partly drawn) [93-2] | 0.305 µM | 0.558 µM | > 7.5 µM |  | 
2 | C=CC(=O)N1C[C@H](C)N(c2nc(=O)n(-c3c(N(C)C)ccnc3C(C)C)c3nc(-c4ccccc4F)c(Cl)cc23)C[C@H]1C [Example 55-51, 6-Chloro-1-[4-(dimethylamino)-2-isopropyl-3-pyridyl]-4-[(2S,5R)-2,5-dimethyl-4-prop-2-enoyl-piperazin-1-yl]-7-(2-fluorophenyl)pyrido[2,3-d]pyrimidin-2-one] | 0.19 µM | 0.079 µM |  | > 7.5 µM | 
3 | C=CC(=O)N1C[C@H](C)N(c2nc(=O)n(-c3c(Cl)ccnc3C(C)C)c3nc(OC)c(-c4ccccc4F)cc23)C[C@H]1C [Example 55-52, 1-(4-Chloro-2-isopropyl-3-pyridyl)-4-[(2S,5R)-2,5-dimethyl-4-prop-2-enoyl-piperazin-1-yl]-6-(2-fluorophenyl)-7-methoxy-pyrido[2,3-d]pyrimidin-2-one] | 10.2 µM |  |  | > 7.5 µM | 10 µM
4 | C=CC(=O)N1C[C@H](C)N(c2nc(=O)n(C)c3nc(-c4ccccc4F)c(Cl)cc23)C[C@H]1C [Example 55-59, 6-Chloro-4-[(2S,5R)-2,5-dimethyl-4-prop-2-enoyl-piperazin-1-yl]-7-(2-fluorophenyl)-1-methyl-pyrido[2,3-d]pyrimidin-2-one] | 174 µM |  |  | > 7.5 µM | 10 µM
5 | C=CC(=O)N1C[C@H](C)N(c2nc(=O)n(C(C)C)c3nc(-c4ccccc4F)c(Cl)cc23)C[C@H]1C [Example 55-60, 6-Chloro-4-[(2S,5R)-2,5-dimethyl-4-prop-2-enoyl-piperazin-1-yl]-7-(2-fluorophenyl)-1-isopropyl-pyrido[2,3-d]pyrimidin-2-one] | 7.85 µM |  |  | > 7.5 µM | 7.77 µM
6 | C=CC(=O)N1C[C@H](C)N(c2nc(=O)n(-c3c(CN4CCCC4)cccc3C(C)C)c3nc(-c4ccccc4F)c(Cl)cc23)C[C@H]1C [Example 80-10, 6-Chloro-4-[(2S,5R)-2,5-dimethyl-4-prop-2-enoyl-piperazin-1-yl]-7-(2-fluorophenyl)-1-[2-isopropyl-6-(pyrrolidin-1-ylmethyl)phenyl]pyrido[2,3-d]pyrimidin-2-one] | 0.077 µM |  |  | > 7.5 µM | 0.063 µM
7 | C=CC(=O)N1C[C@H](C)N(c2nc(=O)n(-c3c(CN4CC(F)(F)C4)cccc3C(C)C)c3nc(-c4ccccc4F)c(Cl)cc23)C[C@H]1C [Example 80-11, 6-chloro-1-[2-[(3,3-difluoroazetidin-1-yl)methyl]-6-isopropyl-phenyl]-4-[(2S,5R)-2,5-dimethyl-4-prop-2-enoyl-piperazin-1-yl]-7-(2-fluorophenyl)pyrido[2,3-d]pyrimidin-2-one] | 0.078 µM |  |  | > 7.5 µM | 0.222 µM
8 | C=CC(=O)N1C[C@H](C)N(c2nc(=O)n(-c3c(CN4CCC4)cccc3C(C)C)c3nc(-c4ccccc4F)c(Cl)cc23)C[C@H]1C [Example 80-12, 1-[2-(azetidin-1-ylmethyl)-6-isopropyl-phenyl]-6-chloro-4-[(2S,5R)-2,5-dimethyl-4-prop-2-enoyl-piperazin-1-yl]-7-(2-fluorophenyl)pyrido[2,3-d]pyrimidin-2-one] | 0.064 µM |  |  | > 7.5 µM | 0.074 µM
9 | C=CC(=O)N1CCN(c2nc(=O)n(-c3c(CN(C)C)cccc3C(C)C)c3nc(-c4ccccc4F)c(Cl)cc23)[C@@H](C)C1 [Example 80-13, 6-Chloro-1-[2-[(dimethylamino)methyl]-6-isopropyl-phenyl]-7-(2-fluorophenyl)-4-[(2S)-2-methyl-4-prop-2-enoyl-piperazin-1-yl]pyrido[2,3-d]pyrimidin-2-one] | 0.043 µM |  |  | > 7.5 µM | 0.053 µM
10 | C=CC(=O)N1C[C@H](C)N(c2nc(=O)n(-c3c(C)cc(CN(C)C)cc3C(C)C)c3nc(-c4ccccc4F)c(F)cc23)C[C@H]1C [Example 80-20, 1-[4-[(Dimethylamino)methyl]-2-isopropyl-6-methyl-phenyl]-4-[(2S,5R)-2,5-dimethyl-4-prop-2-enoyl-piperazin-1-yl]-6-fluoro-7-(2-fluorophenyl)pyrido[2,3-d]pyrimidin-2-one] | 0.763 µM | 0.735 µM |  | > 7.5 µM | 
11 | C=CC(=O)N1C[C@H](C)N(c2nc(=O)n(-c3c(C)cc(CN(C)C)cc3C(C)C)c3nc(-c4c(O)cccc4F)c(F)cc23)C[C@H]1C [Example 80-21, 1-[4-[(Dimethylamino)methyl]-2-isopropyl-6-methyl-phenyl]-4-[(2S,5R)-2,5-dimethyl-4-prop-2-enoyl-piperazin-1-yl]-6-fluoro-7-(2-fluoro-6-hydroxy-phenyl)pyrido[2,3-d]pyrimidin-2-one] | 0.25 µM |  |  | > 7.5 µM | 0.138 µM
12 | C=CC(=O)N1C[C@H](C)N(c2nc(=O)n(-c3c(C(C)C)cnn3C(C)C)c3nc(-c4ccccc4F)c(Cl)cc23)C[C@H]1C [Example 100-1, 6-Chloro-1-(2,4-diisopropylpyrazol-3-yl)-4-[(2S,5R)-2,5-dimethyl-4-prop-2-enoyl-piperazin-1-yl]-7-(2-fluorophenyl)pyrido[2,3-d]pyrimidin-2-one] | 0.084 µM |  |  | > 7.5 µM | 0.123 µM
13 | C=CC(=O)N1C[C@H](C)N(c2nc(=O)n(-c3c(C(C)C)ncnc3C(C)C)c3nc(-c4ccc(C#N)cc4F)c(Cl)cc23)C[C@H]1C [Example 100-2, 4-[6-Chloro-1-(4,6-diisopropylpyrimidin-5-yl)-4-[(2S,5R)-2,5-dimethyl-4-prop-2-enoyl-piperazin-1-yl]-2-oxo-pyrido[2,3-d]pyrimidin-7-yl]-3-fluoro-benzonitrile] | 0.324 µM |  |  | > 7.5 µM | 0.298 µM
14 | C=CC(=O)N1C[C@H](C)N(c2nc(=O)n(-c3c(C(C)C)ncnc3C(C)C)c3nc(-c4ccccc4C(C)C)c(Cl)cc23)C[C@H]1C [Example 100-4, 6-Chloro-1-(4,6-diisopropylpyrimidin-5-yl)-4-[(2S,5R)-2,5-dimethyl-4-prop-2-enoyl-piperazin-1-yl]-7-(2-isopropylphenyl) pyrido[2,3-d]pyrimidin-2-one] | 0.006 µM |  |  | > 7.5 µM | 0.106 µM
15 | C=CC(=O)N1C[C@H](C)N(c2nc(=O)n(-c3c(C(C)C)cncc3C(C)C)c3nc(-c4c(O)cccc4F)c(F)cc23)C[C@H]1C [Example 101-1, 1-(3,5-Diisopropyl-4-pyridyl)-4-[(2S,5R)-2,5-dimethyl-4-prop-2-enoyl-piperazin-1-y]-6-fluoro-7-(2-fluoro-6-hydroxy-phenyl)pyrido[2,3-d]pyrimidin-2-one] | 0.134 µM | 0.116 µM | > 7.5 µM |  | 
16 | C=CC(=O)N1C[C@H](C)N(c2nc(=O)n(-c3c(C(C)C)ncnc3C(C)C)c3nc(-c4ccccc4F)c(F)cc23)C[C@H]1C [Example 101-2, 1-(4,6-Diisopropylpyrimidin-5-yl)-4-[(2S,5R)-2,5-dimethyl-4-prop-2-enoyl-piperazin-1-yl]-6-fluoro-7-(2-fluorophenyl)pyrido [2,3-d]pyrimidin-2-one] | 0.16 µM |  |  | > 7.5 µM | 0.116 µM
17 | C=CC(=O)N1C[C@@H](C)N(c2nc(=O)n(-c3c(C(C)C)ncnc3C(C)C)c3nc(-c4ccccc4F)c(F)cc23)[C@@H](C)C1 [Example 101-3, 1-(4,6-Diisopropylpyrimidin-5-yl)-4-[(2R,6S)-2,6-dimethyl-4-prop-2-enoyl-piperazin-1-yl]-6-fluoro-7-(2-fluorophenyl)pyrido [2,3-d]pyrimidin-2-one] | 0.195 µM |  |  | > 7.5 µM | 0.208 µM
18 | C=CC(=O)N1C[C@H](C)N(c2nc(=O)n(-c3c(Cl)ncnc3C(C)C)c3nc(-c4ccccc4F)c(Cl)cc23)C[C@H]1C [Example 102-5, 6-Chloro-1-(4-chloro-6-isopropyl-pyrimidin-5-yl)-4-[(2S,5R)-2,5-dimethyl-4-prop-2-enoyl-piperazin-1-yl]-7-(2-fluorophenyl) pyrido[2,3-d]pyrimidin-2-one] | 0.071 µM | 0.084 µM |  | > 7.5 µM | 
19 | C=CC(=O)N1C[C@H](C)N(c2nc(=O)n(-c3c(Cl)ncnc3C(C)C)c3nc(-c4ccccc4C)c(Cl)cc23)C[C@H]1C [Example 102-6, 6-Chloro-1-(4-chloro-6-isopropyl-pyrimidin-5-yl)-4-[(2S,5R)-2,5-dimethyl-4-prop-2-enoyl-piperazin-1-yl]-7-(o-tolyl)pyrido[2,3-d]pyrimidin-2-one] | 0.066 µM |  |  | > 7.5 µM | 0.063 µM
20 | C=CC(=O)N1C[C@H](C)N(c2nc(=O)n(-c3c(N(C)C)ccnc3C(C)C)c3nc(-c4ccccc4C(C)C)c(Cl)cc23)C[C@H]1C [Example 103-1, 4-((2S,5R)-4-Acryloyl-2,5-dimethylpiperazin-1-yl)-6-chloro-1-(4-(dimethylamino)-2-isopropylpyridin-3-yl)-7-(2-isopropylphenyl)pyrido[2,3-d]pyrimidin-2(1H)-one] | 0.105 µM | 0.107 µM |  | > 7.5 µM | 
